What was measured:
[1] = target: T1, human melanopsin WT (Homo sapiens, UniProt Q9UHM6); assay: GsX GloSensor assay with Gsα/q11 (light-induced cAMP response); assay type: cell-based; conditions: COS-1 cells
T1 construct: expressed in transfected cells; host or cells: COS-1
T1 sequence (Q9UHM6 1-384 limits assumed): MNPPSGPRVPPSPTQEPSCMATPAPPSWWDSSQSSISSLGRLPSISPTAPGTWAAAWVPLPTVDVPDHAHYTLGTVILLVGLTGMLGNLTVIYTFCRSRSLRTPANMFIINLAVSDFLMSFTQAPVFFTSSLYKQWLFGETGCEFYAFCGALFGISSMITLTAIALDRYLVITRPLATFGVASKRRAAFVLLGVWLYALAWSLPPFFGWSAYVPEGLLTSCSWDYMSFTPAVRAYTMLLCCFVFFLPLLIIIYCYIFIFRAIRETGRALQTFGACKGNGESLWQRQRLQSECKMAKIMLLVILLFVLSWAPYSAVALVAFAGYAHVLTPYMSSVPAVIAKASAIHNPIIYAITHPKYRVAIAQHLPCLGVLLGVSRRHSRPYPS
Text: To quantify the antagonistic effects of AA92593 on mammalian melanopsins, we used the GsX GloSensor assay ([12], [13], [14]). This assay measures GPCR-induced increases in intracellular cAMP levels even for Gq-, Gi/o-, or G12-coupled receptors by using Gsα chimeras ([12], [13], [14]). Because melanopsin is primarily coupled with Gq-type G proteins, a Gsα mutant with 11 C-terminal sequence of Gqα (Gsα/q11) was expressed in COS-1 cells with melanopsin and a luciferase-based cAMP biosensor (see “Experimental procedures”) ([15]). This assay enables the measurement of Gq activation by melanopsin as cAMP production (an increase in luminescence). In this study, we used C-terminal–truncated melanopsin constructs to increase the expression levels with minimal compromise in functionality ([9], [16], [17], [18], [19]). […] In addition, the C-terminal region is located far from the binding site of AA92593 (see below). Hereafter, the C-terminal–truncated melanopsin constructs are named as “WT.”
In the constructs for melanopsin expression (opsin name - GenBank ID: human melanopsin - NM_033282.4, mouse melanopsin - NM_013887.2, Xenopus Opn4x - NM_001085674.1, chicken opn4-1 - NM_001397961.1, B. belcheri melanopsin - AB205400.1, and B. lanceolatum melanopsin - MF464477.1), the C-terminal amino acid residues (94, 140, 200, 214, 296, and 308 residues for human ([9]), mouse ([9]), Xenopus, chicken, belcheri ([16]), and lanceolatum melanopsins, respectively) were removed, the 1D4 tag sequence (ETSQVAPA) was added, and inserted into the EcoRI/NotI site in a mammalian expression vector pMT. Jumping spider rhodopsin-1 (GenBank ID: AB251846.1) was also added with the 1D4 tag and inserted into pMT vector. Human and mouse melanopsins, and jumping spider rhodopsin-1 in pCDNA3.1 were kindly provided from Drs. Akihisa Terakita and Mitsumasa Koyanagi (Osaka Metropolitan University). In this paper, each opsin with the C-terminal sequence modifications as described above is denoted “WT.” Bovine Gsα and its mutants Gsα/q11 and Gsα/i11 (C-terminal 11 residues are replaced with Gqα and Giα, respectively) were also inserted into the pMT vector. The GFP-tagged melanopsin constructs, in which EGFP protein fused with C-termini of melanopsins, were prepared as previously described ([9], [50]). […]
(§1) For GloSensor assay, opsins, GloSensor assay sensor (coded by pGlo-22F), and NanoBiT-tagged G proteins were transiently expressed in COS-1 cells (kindly provided from Dr David Farrens, Oregon Health and Science University) using PEI as described previously ([24], [52]). […] For GFP-fluorescence microscopy, a 35-mm cell culture dish (IWAKI) was transfected with 2 μg melanopsin-GFP plasmid and 8 μg PEI in 400 μl Opti-mem and 1.2 ml D-MEM. […]

[2] = target: T2, human melanopsin (Homo sapiens, UniProt Q9UHM6); parameters: the C-terminal amino acid residues (94, 140, 200, 214, 296, and 308 residues); expressed in transfected cells; method as in PMID 23974117; conditions: CHO cells; calcium imaging; 9-cis-retinal incubation several minutes; read-out: IC50 reported in the previous study; cited from earlier work
T2 sequence (Q9UHM6 1-384 limits assumed): T1 sequence (Q9UHM6 1-384 limits assumed)

[3] = target: T3, belcheri melanopsin WT (Branchiostoma belcheri, UniProt Q4R1I4); assay: GsX GloSensor assay with Gsα/q11; assay type: cell-based; conditions: 16.7 μM AA92593, COS-1 cells
T3 construct: expressed in transfected cells; host or cells: COS-1
T3 sequence (Q4R1I4 1-410 limits assumed): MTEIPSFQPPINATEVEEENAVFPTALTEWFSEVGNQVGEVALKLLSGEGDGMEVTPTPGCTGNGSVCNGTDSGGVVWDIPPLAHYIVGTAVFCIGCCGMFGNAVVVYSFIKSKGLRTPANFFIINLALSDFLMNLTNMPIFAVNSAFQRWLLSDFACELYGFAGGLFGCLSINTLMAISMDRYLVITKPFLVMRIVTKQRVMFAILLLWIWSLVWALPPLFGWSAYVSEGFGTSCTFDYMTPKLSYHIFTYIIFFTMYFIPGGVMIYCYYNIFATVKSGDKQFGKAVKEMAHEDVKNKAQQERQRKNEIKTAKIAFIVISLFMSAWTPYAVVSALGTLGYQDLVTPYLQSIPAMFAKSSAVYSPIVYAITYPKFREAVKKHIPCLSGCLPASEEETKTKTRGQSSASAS
Text: Non-mammalian-type melanopsins were successfully converted into AA92593-susceptible types by introducing Phe-94^2.61/Ser-188^ECL2/Ser-269^6.52 or Phe-207^5.42 (Fig. 6). We attempted to extend the functional conversion targets to invertebrate melanopsin (see Fig. S2). […] We assessed the susceptibility of belcheri and lanceolatum melanopsins to AA92593 using the GsX GloSensor assay with Gsα/q11. In the absence of AA92593, the belcheri melanopsin produced smaller light-dependent cAMP responses than the other melanopsins assessed in this study (Fig. 7A), whereas the lanceolatum melanopsin produced robust cAMP responses upon light illumination (Fig. 7B). […] On the other hand, responses by the lanceolatum melanopsin were insensitive to the antagonist (Fig. 7B), similar to non-mammalian-type melanopsins (Fig. 6, A and D). […]
as §1

[4] = relative peak cAMP response vs no AA92593

SMILES: COc1ccc(S(=O)(=O)N2CCCCC2)cc1C [AA92593]
- Hill fitting parameter rate of dose-response curve [1]: −0.92 ± 0.21
- IC50 ([1]; 0.1 μM 9-cis-retinal, white light 10 s, n = 3, read-out: IC50, reduction in peak cAMP responses upon Gsα/q11 activation): 1050 ± 280 nM
- Hill fitting parameter max of dose-response curve [1, 4]: 102.59 ± 2.72
- Hill fitting parameter min of dose-response curve [1, 4]: 13.65 ± 7.28
- IC50 [2]: 665 nM
- reduction of light-induced cellular responses by the addition of AA92593 [3]: ~34%
